Consider 22 compounds from PubChem BioAssay AID624452 (Sanford-Burnham Center for Chemical Genomics, 2012).

One data set has as its system human liver microsomes, compound remaining, LC-MS. The data set can be described thus: human microsomal compound turnover – biochemical, with and without NADPH, LC-MS, set 2, ADME assay (AID 624452).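 Also: compound left measured after 60 min microsomal incubation at 37 °C.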 Conditions: at 1 µM.
Compound `COc1ccc(CNCc2cccc3ccccc23)cc1` showed a percent remaining with NADPH of 0.21%.

Compound `Cc1cc(C)n(-c2nc(NCCCO)c3c4c(sc3n2)CCCC4)n1` displayed a percent remaining with NADPH of 0.45%.

`Brc1ccc2c(c1)CN1CCCC1=N2` returned a percent remaining with NADPH of 56.4%.

In the case of `Cc1ccc(C)c(OCCn2cc(C(=O)O)c3ccccc32)c1`, the percent remaining with NADPH was 35.8%.

Compound `Cc1ccc(NC(=O)CCC(=O)N/N=C/c2ccc([N+](=O)[O-])o2)cc1C` returned a percent remaining with NADPH of 37.5%.

`O=C(CCNS(=O)(=O)c1cccc2nsnc12)N1CCN(c2ccccn2)CC1` yielded a percent remaining with NADPH of 3.36%.

As for `COc1ccc(C2CC(c3ccccc3)=NN2c2ccc(S(N)(=O)=O)cc2)cc1` (centres undefined), the percent remaining with NADPH was determined as 59.6%.

Compound `COc1ccc(N(C(=O)CCl)C(C(=O)NCCc2ccccc2)c2cccs2)cc1Cl` (centres undefined) displayed a percent remaining with NADPH of 1.54%.

In the case of `O=c1[nH]c(SCc2ccc(Cl)cc2)nc2c1CCC2`, the percent remaining with NADPH turned out to be 12.6%.

`Cc1ccc(N2CCN(S(=O)(=O)N3CCCCC3)CC2)c(C)c1` yielded a percent remaining with NADPH of 0.03%.

In the case of `COc1ccc(CSc2nc(C)cc(=O)[nH]2)cc1`, the percent remaining with NADPH came out at 41.4%.

`CCCc1cc(C(=O)N(C2CCCCC2)C2CCCCC2)no1` displayed a percent remaining with NADPH of 5.27%.

Turning to `CCCc1nc2c(=O)n(C)c(=O)nc-2n(C)n1`, the percent remaining with NADPH is 65.6%.

The compound `O=C1CCCC2=C1C1(CCCC1)N=C(Nc1nc3ccccc3o1)N2` yielded a percent remaining with NADPH of 11.2%.

On to `COc1ccc(S(=O)(=O)n2nc(OC(=O)c3ccccc3)cc2N)cc1`, for which the percent remaining with NADPH is 52.9%.

As to `COC(=O)c1ccccc1NC(=O)c1ccc(F)cc1`, the percent remaining with NADPH was 53.7%.

`CC(=O)c1ccc(N2CCN(S(=O)(=O)c3ccc4c(c3)CC(=O)N4)CC2)cc1` gave a percent remaining with NADPH of 49%.

In the case of `C/C=C/Cn1c(SCCCc2ccccc2)nc2c1c(=O)[nH]c(=O)n2C`, the percent remaining with NADPH was 1.64%.

Take `CCCN1CNc2c(c(=O)[nH]c(=S)n2CCc2ccc(OC)c(OC)c2)C1`: the percent remaining with NADPH came to 48.6%.

In turn, `CCCN(CCC)CCNC(=O)C1CCN(Cc2nc(-c3ccc(Cl)cc3)oc2C)CC1` gave a percent remaining with NADPH of 13.5%.

Regarding `Cc1ccc(C(=O)n2c3ccccc3c3ccccc32)cc1`, the percent remaining with NADPH is 24%.

Consider `CCOc1ccc(NC(=S)N2CCC(C(O)(c3ccccc3)c3ccccc3)CC2)cc1`, for which the percent remaining with NADPH is 22.7%.

Staying with this data set, now noted: measured here: stability without NADPH control; at 1 µM.
Compound `COc1ccc(CNCc2cccc3ccccc23)cc1` gave a percent remaining without NADPH of 70.7%.

Compound `Cc1cc(C)n(-c2nc(NCCCO)c3c4c(sc3n2)CCCC4)n1` had a percent remaining without NADPH of 74%.

Consider `Brc1ccc2c(c1)CN1CCCC1=N2`, for which the percent remaining without NADPH was 77.8%.

`Cc1ccc(C)c(OCCn2cc(C(=O)O)c3ccccc32)c1` returned a percent remaining without NADPH of 66.7%.

Take `Cc1ccc(NC(=O)CCC(=O)N/N=C/c2ccc([N+](=O)[O-])o2)cc1C`: the percent remaining without NADPH came out at 72.6%.

In the case of `O=C(CCNS(=O)(=O)c1cccc2nsnc12)N1CCN(c2ccccn2)CC1`, the percent remaining without NADPH came to 71.8%.

Turning to `COc1ccc(C2CC(c3ccccc3)=NN2c2ccc(S(N)(=O)=O)cc2)cc1` (centres undefined), the percent remaining without NADPH was determined as 70%.

Regarding `COc1ccc(N(C(=O)CCl)C(C(=O)NCCc2ccccc2)c2cccs2)cc1Cl` (centres undefined), the percent remaining without NADPH was 39.7%.

In turn, `O=c1[nH]c(SCc2ccc(Cl)cc2)nc2c1CCC2` gave a percent remaining without NADPH of 78.5%.

Compound `Cc1ccc(N2CCN(S(=O)(=O)N3CCCCC3)CC2)c(C)c1` gave a percent remaining without NADPH of 73.8%.

Compound `COc1ccc(CSc2nc(C)cc(=O)[nH]2)cc1` returned a percent remaining without NADPH of 68.6%.

In turn, `CCCc1cc(C(=O)N(C2CCCCC2)C2CCCCC2)no1` displayed a percent remaining without NADPH of 57.6%.

For the compound `CCCc1nc2c(=O)n(C)c(=O)nc-2n(C)n1`, the percent remaining without NADPH stood at 61.5%.

For `O=C1CCCC2=C1C1(CCCC1)N=C(Nc1nc3ccccc3o1)N2`, the percent remaining without NADPH turned out to be 78.1%.

Turning to `COc1ccc(S(=O)(=O)n2nc(OC(=O)c3ccccc3)cc2N)cc1`, the percent remaining without NADPH was determined as 65.4%.

The compound `COC(=O)c1ccccc1NC(=O)c1ccc(F)cc1` gave a percent remaining without NADPH of 100%.

Take `CC(=O)c1ccc(N2CCN(S(=O)(=O)c3ccc4c(c3)CC(=O)N4)CC2)cc1`: the percent remaining without NADPH was found to be 69.8%.

For `C/C=C/Cn1c(SCCCc2ccccc2)nc2c1c(=O)[nH]c(=O)n2C`, the percent remaining without NADPH was found to be 69.3%.

Compound `CCCN1CNc2c(c(=O)[nH]c(=S)n2CCc2ccc(OC)c(OC)c2)C1` displayed a percent remaining without NADPH of 65%.

With `CCCN(CCC)CCNC(=O)C1CCN(Cc2nc(-c3ccc(Cl)cc3)oc2C)CC1`, the percent remaining without NADPH turned out to be 75.6%.

For `Cc1ccc(C(=O)n2c3ccccc3c3ccccc32)cc1`, the percent remaining without NADPH is 48.7%.

Compound `CCOc1ccc(NC(=S)N2CCC(C(O)(c3ccccc3)c3ccccc3)CC2)cc1` registered a percent remaining without NADPH of 62%.
